{
  "source": "patent US9340559B2",
  "about": "“Proteasome inhibitor delanzomib for use in the treatment of lupus” (Cephalon, Inc., priority 2011, dated 2016)",
  "type_in_all_cases": "in vivo, mouse",
  "key": {"NZM mice [1]": {"system": "NZM mice", "assay": "Urinalysis: total urine protein (proteinuria), NZM mice (Example 2)", "conditions": "G5 1.5 mg/kg ip, 3× wk"}, "MRL/lpr mice [2]": {"system": "MRL/lpr mice", "assay": "Splenomegaly (spleen mass), MRL/lpr mice", "conditions": "G6: 1.5 mg/kg ip, 3× wk", "protocol": "FIG. 5 depicts splenomegaly for MRL/lpr mice across treatment groups for the study duration. MRL/lpr mice were treated as outlined in the legend. The spleen masses for all mice that survived until the end of the experiment are graphed. Each symbol represents the spleen weight for one mouse at 25 weeks of age.\nMice are tracked on an individual basis.\nVehicle alone is provided orally twice weekly (p.o.). Both proteasome inhibitors are suspended in the vehicle solution. […] In addition, urine proteinuria is determined for all animals.\nVehicle was 3% DMSO/10% Solutol/87% PBS."}, "NZM mice [3]": {"system": "NZM mice", "assay": "Survival, NZM lupus nephritis model, ip dosing (Example 2)", "conditions": "G5 1.5 mg/kg ip, 3× wk"}, "NZM mice [4]": {"system": "NZM mice", "assay": "Splenomegaly (spleen mass), NZM mice (Example 2)", "conditions": "G5 1.5 mg/kg ip, 3× wk"}, "MRL/lpr mice [5]": {"system": "MRL/lpr mice", "assay": "Urinalysis: total urine protein (proteinuria), MRL/lpr mice", "conditions": "G6: 1.5 mg/kg ip, 3× wk", "protocol": "Urine samples are acid precipitated for total protein recovery and analysis. Samples for which enough urine remained are used for Uristix® leukouria analysis. Briefly, a standard protein solution is prepared from normal mouse sera and is used as a standard for mouse urinary protein assay by turbidity. Standard preparation is as follows: 0, 5, 10, 15, 20, 30, 40, and 50 μL of a 4 mg/mL mouse sera standard protein solution as provided in the kit are added in duplicate into two columns. PBS is added to individual wells to adjust the final volume to 50 μL. For urine sample preparation, urine samples are centrifuged at 9880×g for 3 minutes using a tabletop micro-centrifuge. Urine supernatant (1-50 μL) is added in duplicate. PBS is added to adjust the volume to 50 μL total. For the turbidity assay: 25 μL of 0.1 N HCl is added into blank columns and 250 μL of 3% sulfosalicyclic acid into the test columns. The microplate is incubated for 10 minutes at RT and plates are read using an ELISA reader with single beam at 450 nm. For the Uristix® strip assay, strips are laid out and labeled. Twenty microliters of urine are placed onto each test strip square and incubated for at least 30 seconds before the result is recorded. For all total urine analysis plate-based assays, values below the limit of detection set by the lowest point along the standard or set by the manufacturer are considered out of range and are not estimated, but assumed the lowest point along the standard curve for that particular assay."}, "NZM mice [6]": {"system": "NZM mice", "assay": "Renal histopathology scoring (kidney IC-GN), NZM mice (Example 2)", "protocol": "For histological analyses, the left kidney from each animal is removed and fixed in 10% buffered neutral formalin (EMD) for 48 hours on an orbital rocker at 25° C., then washed overnight with running dH2O and stored in 70% ethanol at 4° C. until ready to be processed. Kidney stains used for histological analyses included hematoxylin and eosin (H&E), Periodic Acid Schiff (PAS) and Trichrome stains (Wistar Institute, Philadelphia, Pa.). All 3 stained sections are used by the pathologist for scoring purposes. All histological scoring is performed blinded and by an independent board certified veterinary medical pathologist (Julie Engiles, VMD, DACVP). Multiple stains are used to determine score values. Images in FIG. 39 show worst affected area of section selected blindly by the pathologist.\nKidney IC-GN Scoring Method (Smith, Dong et al. 2007):\n1. Glomerular cellularity—Score 1-5: Null, low, moderate, high, severe\n2. Glomerular necrosis—Score 1-5: Null, low, moderate, high, severe\n3. Glomerulosclerosis—Score 1-5: Null, low, moderate, high, severe\n4. Interstitial infiltration—Score 1-5: Null, low, moderate, high, severe\n5. Tubular atrophy—Score 1-5: Null, low, moderate, high, severe\n6. Interstitial fibrosis—Score 1-5: Null, low, moderate, high, severe\n7. Vasculitis—Score 1-5: Null, low, moderate, high, severe\nSpecific Pathologist Definitions: • Necrosis is defined by the presence of nuclear debris/pyknosis within the glomerular tuft indicative of “necrosis.” In many samples, this is a very mild, rare finding within only a very few segments of the glomerular tuft. Also consider effacement of the glomerular tuft by PAS positive, Trichrome negative material necrosis. • Glomerular sclerosis is defined by increased fibroplasia or fibrosis within the glomerular tuft or capsule. […] Most of the vascular changes are mild and could be considered “arteriosclerosis” characterized by proliferation of the smooth muscle cells, and hyalinization of the extracellular matrix. This change may reflect hypertension secondary to glomerular pathology. In very few animals is there overt “vasculitis.” Most inflammatory changes are within the walls of the blood vessels, with little to no damage to the endothelium, and no overt hemorrhage/fibrin leakage. Many also have perivascular rims of fibroblasts."}},
  "data": [
    {"smiles": "C[C@@H]1C[C@H]2[C@@H]3CCC4=CC(=O)C=C[C@]4(C)[C@@]3(F)[C@@H](O)C[C@]2(C)[C@@]1(O)C(=O)CO", "note": "[dexamethasone, Dexamethasone, reference compound]", "values": [
      {"measurement": "Urine proteinuria AUC, percent change vs vehicle", "setting": "NZM mice [1]", "value": 27, "unit": "%"},
      {"measurement": "EOS spleen mass, percent change vs vehicle", "setting": "MRL/lpr mice [2]", "value": "−71", "unit": "%"},
      {"measurement": "EOS survival, percent live mice from original number", "setting": "NZM mice [3]", "value": 10, "unit": "%"},
      {"measurement": "Spleen mass EOS, percent change vs vehicle", "setting": "NZM mice [4]", "value": "−59", "unit": "%"},
      {"measurement": "Urine AUC proteinuria, percent change vs vehicle", "setting": "MRL/lpr mice [5]", "value": "−46", "unit": "%"},
      {"measurement": "Kidney glomerular cellularity, percent change vs vehicle", "setting": "NZM mice [6]; G5 1.5 mg/kg ip, 3× wk", "value": "−38", "unit": "%"},
      {"measurement": "Kidney glomerular necrosis, percent change vs vehicle", "setting": "NZM mice [6]; G5 1.5 mg/kg ip, 3× wk", "value": "−16", "unit": "%"},
      {"measurement": "Kidney glomerulosclerosis, percent change vs vehicle", "setting": "NZM mice [6]; G5 1.5 mg/kg ip, 3× wk", "value": "−17", "unit": "%"},
      {"measurement": "Kidney interstitial fibrosis, percent change vs vehicle", "setting": "NZM mice [6]; G5 1.5 mg/kg ip, 3× wk", "value": "−36", "unit": "%"},
      {"measurement": "Kidney interstitial infiltration, percent change vs vehicle", "setting": "NZM mice [6]; G5 1.5 mg/kg ip, 3× wk", "value": "−36", "unit": "%"},
      {"measurement": "Kidney tubular atrophy, percent change vs vehicle", "setting": "NZM mice [6]; G5 1.5 mg/kg ip, 3× wk", "value": "−25", "unit": "%"},
      {"measurement": "Kidney vasculitis, percent change vs vehicle", "setting": "NZM mice [6]; G5 1.5 mg/kg ip, 3× wk", "value": "−40", "unit": "%"},
      {"measurement": "p, glomerular cellularity (GC) vs G8 NZW/LacJ non-diseased", "setting": "NZM mice [6]; G6 1.5 mg/kg 1× wk", "value": "p < 0.01"},
      {"measurement": "p, glomerular necrosis (GN) vs G5 CTX 50 mg/kg 1× wk", "setting": "NZM mice [6]; G6 1.5 mg/kg 1× wk", "value": "p < 0.05"},
      {"measurement": "p, glomerular necrosis (GN) vs G8 NZW/LacJ non-diseased", "setting": "NZM mice [6]; G6 1.5 mg/kg 1× wk", "value": "p < 0.01"},
      {"measurement": "p, glomerular necrosis (GN) vs G9 NZM diseased baseline", "setting": "NZM mice [6]; G6 1.5 mg/kg 1× wk", "value": "p < 0.05"},
      {"measurement": "p, glomerulosclerosis (GS) vs G4 Bortezomib 0.3 mg/kg 2× wk", "setting": "NZM mice [6]; G6 1.5 mg/kg 1× wk", "value": "p < 0.001"},
      {"measurement": "p, glomerulosclerosis (GS) vs G5 CTX 50 mg/kg 1× wk", "setting": "NZM mice [6]; G6 1.5 mg/kg 1× wk", "value": "p < 0.05"},
      {"measurement": "p, glomerulosclerosis (GS) vs G8 NZW/LacJ non-diseased", "setting": "NZM mice [6]; G6 1.5 mg/kg 1× wk", "value": "p < 0.001"},
      {"measurement": "p, glomerulosclerosis (GS) vs G9 NZM diseased baseline", "setting": "NZM mice [6]; G6 1.5 mg/kg 1× wk", "value": "p < 0.05"},
      {"measurement": "p, interstitial fibrosis (IF) vs G5 CTX 50 mg/kg 1× wk", "setting": "NZM mice [6]; G6 1.5 mg/kg 1× wk", "value": "p < 0.05"},
      {"measurement": "p, interstitial fibrosis (IF) vs G8 NZW/LacJ non-diseased", "setting": "NZM mice [6]; G6 1.5 mg/kg 1× wk", "value": "p < 0.05"},
      {"measurement": "p, interstitial infiltration (II) vs G4 Bortezomib 0.3 mg/kg 2× wk", "setting": "NZM mice [6]; G6 1.5 mg/kg 1× wk", "value": "p < 0.01"},
      {"measurement": "p, interstitial infiltration (II) vs G5 CTX 50 mg/kg 1× wk", "setting": "NZM mice [6]; G6 1.5 mg/kg 1× wk", "value": "p < 0.05"},
      {"measurement": "p, interstitial infiltration (II) vs G8 NZW/LacJ non-diseased", "setting": "NZM mice [6]; G6 1.5 mg/kg 1× wk", "value": "p < 0.05"},
      {"measurement": "p, tubular atrophy (TA) vs G4 Bortezomib 0.3 mg/kg 2× wk", "setting": "NZM mice [6]; G6 1.5 mg/kg 1× wk", "value": "p < 0.01"},
      {"measurement": "p, tubular atrophy (TA) vs G5 CTX 50 mg/kg 1× wk", "setting": "NZM mice [6]; G6 1.5 mg/kg 1× wk", "value": "p < 0.05"},
      {"measurement": "p, tubular atrophy (TA) vs G8 NZW/LacJ non-diseased", "setting": "NZM mice [6]; G6 1.5 mg/kg 1× wk", "value": "p < 0.01"}
    ]}
  ]
}
